Measured values from article PMC6410202, “Dual Action of the PN159/KLAL/MAP Peptide: Increase of Drug Penetration across Caco-2 Intestinal Barrier Model by Modulation of Tight Junctions and Plasma Membrane Permeability” (Pharmaceutics, 2019).

What was measured:
[1] = test system: Enterobacter cloacae spp. cloacae (ATCC 13047); experiment: microbe, parasite or virus in culture; details: Enterobacter cloacae, ATCC13047, 18 h
Method: (§1) The MIC of PN159 on the 6 sensitive and resistant ESKAPE pathogenic strains was determined in cation-adjusted Muller–Hinton broth. […] Minimum inhibitory concentrations (MICs) were determined by using a standard serial broth dilution technique. Briefly, 11-step serial dilutions were prepared in 96-well microtiter plates with three biological replicates per strain. Pathogens were inoculated into each well at a density of 5×10^5 bacteria/mL, and the plates were incubated at 37 °C. Plates were shaken at 300 rpm during incubation for 18 h. Cell growth was monitored by measuring the optical density (OD600 value, Synergy 2 microplate reader BioTek Instruments Inc, Winooski, VT, USA). […] As reference compounds we tested the antimicrobial activity of three bactericidal drugs with different modes of action.

[2] = test system: Pseudomonas aeruginosa (ATCC 27853); experiment: microbe, parasite or virus in culture; details: Pseudomonas aeruginosa, ATCC27853, 18 h
Method: as §1

[3] = test system: Staphylococcus aureus (ATCC 29213); experiment: MIC, serial broth dilution; format: cell-based; details: ATCC29213, Muller–Hinton broth, 18 h
Method: as §1

[4] = test system: Klebsiella pneumoniae (ATCC 10031); experiment: MIC, serial broth dilution; format: cell-based; details: ATCC10031, Muller–Hinton broth, 18 h
Method: as §1

[5] = test system: Enterococcus faecium (ATCC 700221); experiment: MIC, serial broth dilution; format: cell-based; details: ATCC700221, Brain-Heart-Infusion broth, 18 h, vancomycin resistant strain
Method: as §1

[6] = test system: Acinetobacter baumannii (ATCC 17978); experiment: MIC, serial broth dilution; format: cell-based; details: ATCC17978, Muller–Hinton broth, 18 h
Method: as §1

Caco-2 cells = experiment: Impedance measurement (RTCA), Caco-2 cells; format: cell-based; details: CPPs 100 μM, 24-h monitoring
Method: Kinetics of epithelial cell reaction to PN159 peptide treatment was monitored by impedance measurement at 10 kHz (RTCA-SP instrument, ACEA Biosciences, San Diego, CA, USA). Impedance measurement is non-invasive, label-free and real time, and linearly correlates with adherence, growth, number and viability of cells. For background measurements 50 μL cell culture medium was added to the wells, then cells were seeded at a density of 6 × 10^3 cells/well to the coated 96-well plates with integrated gold electrodes (E-plate 96, ACEA Biosciences). Cells were cultured for 5–7 days in a CO2 incubator at 37 °C and monitored every 10 min until the end of experiments. Cells were treated with PN159 peptide solutions at 1, 3, 10, 30 and 100 μM concentrations at the beginning of the plateau phase of growth and the effects were followed for 1-h or 24 h. To measure cell recovery, peptide solutions were changed to culture medium and the impedance was monitored for one week. Culture medium was changed every 2 days. Caco-2 cells were also treated with the three selected CPPs, Pep-1, R8 and φ-peptide, at 100 μM concentrations at the beginning of the plateau phase of cell growth for 24-h. Triton X-100 detergent (1 mg/mL) was used as a reference compound to induce cell death. Cell index was defined as Rn-Rb at each time point of measurement, where Rn is the cell-electrode impedance of the well when it contains cells and Rb is the background impedance of the well with the medium alone.

in vitro = details: human, Caco-2, Papp A-B
Method: (§2) In the permeability experiments inserts with Caco-2 cell layers grown for 3 weeks were transferred to 12-well plates containing 1.5 mL Ringer–Hepes buffer in the lower (basal or acceptor) compartments. In the upper or apical compartments culture medium was replaced by 0.5 mL buffer containing peptide solutions: PN159 peptide at 1, 3, 10 and 30 μM concentrations and CPPs at 100 μM concentration. […] The incubation with permeability markers in the presence of PN159 peptide lasted for 30 min. In case of CPPs the incubation time with fluorescein was 1-h. Samples were collected from both compartments and the concentrations of the marker molecules were determined by a fluorescence multi-well plate reader (Fluostar Optima; excitation wavelength: 485 nm, emission wavelength: 535 nm in the case of fluorescein and excitation wavelength: 584 nm, emission wavelength: 680 nm in the case of Evans-blue labeled albumin). Fluorescein isothiocyanate (FITC)-labelled dextran marker molecules (Table 1) were used at 1 mM concentrations, and fluorescence intensities of collected samples were measured using a Fluorolog FL3-22 (Horiba Jobin Yvon, Paris, France) spectrofluorometer using 492 nm excitation wavelength, 515 nm emission wavelength, and 0.5 s integration time. Drugs were used at 10 μM concentrations and samples were measured by HPLC as described below. The apparent permeability coefficients (Papp) were calculated as described previously. Briefly, cleared volume was calculated from the concentration difference of the tracer in the basal compartments (Δ[C]B) after 30 min and apical compartments at 0 h ([C]A), the volume of the basal compartment (VB; 1.5 mL) and the surface area available for permeability (A; 1.1 cm^2).
(§3) Analytical measurements were performed on a Merck-Hitachi LaChrom HPLC system equipped with an ultraviolet (UV) and fluorescence detector (Merck, Darmstadt, Germany). All reagents used were of analytical reagent grade. […] In both cases 10μL sample was injected into the chromatographic system.
(§4) The chromatographic column was maintained at 40 °C and the 5 μL sample was injected onto the column.
(§5) The column temperature was maintained at 40 °C and a 20 μL sample was injected onto the chromatographic system. […] UV detection was set at 228 nm.

EpiAirway model = details: airway epithelial tissue model, by PN159; cited from earlier work
Caco-2 cell layers = experiment: Penetration of marker and drug molecules across Caco-2 cell layers (Papp A-B); details: CPPs 100 μM, 1-h treatment
Method: as §2, §3, §4, §5

Klebsiella pneumoniae = test system: Klebsiella pneumoniae; design: method as in PMID 27617798; details: cited from earlier work

`CO[C@@]1(NC(=O)Cc2cccs2)C(=O)N2C(C(=O)O)=C(COC(N)=O)CS[C@@H]21` [Cefoxitin, cefoxitin] showed an MIC [1] greater than 223 µM, an MIC [2] greater than 223 µM and an MIC [3] of 6.9 µM. It also gave an MIC [4] of 3.5 µM, an MIC [5] greater than 223 µM and an MIC [6] of 223 µM.
Work on `CNC(C)C1CCC(N)C(OC2C(N)CC(N)C(OC3OCC(C)(O)C(NC)C3O)C2O)O1` (stereo not drawn) [Gentamicin, gentamicin] yielded an MIC [1] of 1.1 µM, an MIC [2] of 2.3 µM and an MIC [3] of 1.1 µM. For the same compound, the MIC [4] was 0.6 µM and the MIC [6] was 0.6 µM.
In the case of `N=C(N)NCCC[C@H](NC(=O)[C@H](CCCNC(=N)N)NC(=O)[C@H](CCCNC(=N)N)NC(=O)[C@H](CCCNC(=N)N)NC(=O)[C@H](CCCNC(=N)N)NC(=O)[C@H](CCCNC(=N)N)NC(=O)[C@H](CCCNC(=N)N)NC(=O)[C@@H](N)CCCNC(=N)N)C(N)=O` [R8], the “Cell impedance (normalized cell index)” value (Caco-2 cells) is reported as “decreased the cell impedance”.
Compound `CN/C(=N/CCSCc1nc[nH]c1C)NC#N` [cimetidine] has a Papp A→B at 30 min, 10 μM (in vitro; PN159 treated) of 34.5 ± 4.5 ×10⁻⁶ cm/s and a Papp A→B at 30 min, 10 μM (in vitro; control) of 0.9 ± 0.2 ×10⁻⁶ cm/s.
For `COc1ccc2c3c1O[C@H]1C[C@@H](O)C=C[C@@]31CCN(C)C2` [galantamine], the Increase of permeability (EpiAirway model) is given as 2 to 3 fold.
For “cyclo[CGGFWRRRRGE(εAca)G] (cyclo(CGGFWRRRRGE)-{εAca-Gly}) [φ-peptide]”, the “Cell impedance (normalized cell index)” value (Caco-2 cells) was “decreased the cell impedance” and the “Permeability for fluorescein marker molecule” value (Caco-2 cell layers) was “elevated permeability”.
In the case of melittin, the “Concentration needed for inhibition of growth” value (Klebsiella pneumoniae) is given as “more than 100 µM”.
